The results in this text go back to ChEMBL document CHEMBL2331139, “Discovery of BAF312 (Siponimod), a Potent and Selective S1P Receptor Modulator” (ACS Med Chem Lett, 2013).

Active and inactive are the calls of the source. No cut-off for these calls is given here.

The term EC50 denotes the concentration that produces a half-maximal response. As usually defined, the Emax is the size of the effect at its maximum, as opposed to the concentration needed. As usually defined, the clearance is a measure of how efficiently the substance is removed, as volume per time. For orientation: bioavailability means the share of a dose that reaches the circulation, judged against a reference dose that is usually intravenous. Usually Tmax stands for the time from dosing to the highest level. A word on the inhibition: it is the relative decrease from the control value, in per cent. As a reminder, the ED50 is the dose that gives a 50% effect, or the effect in half of the subjects.

Data set [1] has as its target T1, Sphingosine 1-phosphate receptor 1 (Homo sapiens, UniProt P21453). Description: Agonist activity at human S1P1 receptor transfected in CHO cells incubated for 10 to 15 mins prior to GTPgamma35S addition measured after 120 mins by GTPgamma35S binding assay. The format is functional, cell-based. On the technique in general: Binding of GTPγS marks nucleotide exchange on a G protein.

Data set [2] has as its target T2, Sphingosine 1-phosphate receptor 3 (Homo sapiens, UniProt Q99500). Description: Agonist activity at human S1P3 receptor transfected in CHO cells incubated for 10 to 15 mins prior to GTPgamma35S addition measured after 120 mins by GTPgamma35S binding assay. Type of data set: functional, cell-based.
The target of data set [3] is T1, Sphingosine 1-phosphate receptor 1. Description: Agonist activity at human S1P1 receptor transfected in CHO cells at 10 uM incubated for 10 to 15 mins prior to GTPgamma35S addition measured after 120 mins by GTPgamma35S binding assay relative to S1P. The format is functional, cell-based.
Data set [4] concerns the target T2, Sphingosine 1-phosphate receptor 3. Description: Agonist activity at human S1P3 receptor transfected in CHO cells at 10 uM incubated for 10 to 15 mins prior to GTPgamma35S addition measured after 120 mins by GTPgamma35S binding assay relative to S1P. The format is functional, cell-based.
Data set [5] can be described thus: Plasma protein binding in dog. The format is ADME, cell-free, Canis lupus familiaris. Particulars: read-out: PPB.
Data set [6] can be described thus: Clearance in monkey. Type of data set: ADME, organism-based, Macaca mulatta. The following applies: rhesus monkey, in vivo.
The nature of data set [7]: Plasma protein binding in human. Type of data set: ADME, cell-free. Particulars: read-out: PPB.
The test system of data set [8] is Rattus norvegicus. Description: Reduction in peripheral lymphocyte count in Lewis rat at 1 mg/kg, po after 8 hrs. The format is functional. The arrangement: scale not given: the % may be the effect or the level left.
Data set [9] in a line: Volume of distribution at steady state in monkey. The format is ADME, organism-based, Macaca mulatta. The following applies: rhesus monkey, in vivo; read-out: Vdss.
Data set [10] in a line: Plasma protein binding in monkey. The following applies: rhesus monkey, read-out: PPB. The format is ADME, cell-free, Macaca mulatta.
Data set [11] in a line: Oral bioavailability in rat. Particulars: in vivo. Type of data set: ADME, organism-based.
For data set [12], the system named is Rattus norvegicus. As to the kind of experiment: Reduction in peripheral lymphocyte count in Lewis rat at 1 mg/kg, po after 48 hrs. Type of data set: functional, organism-based. More on the design: dose 1 mg/kg.
The nature of data set [13]: Terminal half life in rat. The format is ADME, organism-based. Particulars: in vivo, read-out: beta t1/2 (converted).
Data set [14] is described as follows: Volume of distribution at steady state in rat. The following applies: in vivo, read-out: Vdss. Type of data set: ADME, organism-based.
Data set [15] is described as follows: Plasma protein binding in rat. Particulars: read-out: PPB. The format is ADME, cell-free.
Data set [16] is filed under the species Rattus norvegicus. As to the kind of experiment: Drug excretion in rat. Type of data set: ADME, organism-based. Particulars: in vivo.
Data set [17] in a line: Oral bioavailability in monkey. The following applies: rhesus monkey, in vivo. The format is ADME, organism-based, Macaca mulatta.
The nature of data set [18]: Terminal half life in monkey. The format is ADME, organism-based, Macaca mulatta. The following applies: rhesus monkey, in vivo; read-out: beta t1/2 (converted).
Data set [19] can be described thus: Tmax in Lewis rat at 1 mg/kg, po after 8 hrs. The format is ADME, organism-based. More on the design: dose 1 mg/kg, route oral. Particulars: in vivo.
Another data set addresses hERG (KCNH2) (Homo sapiens, UniProt Q12809). As to the kind of experiment: Inhibition of human ERG channel at 25 uM.
Data set [20] has as its system Rattus norvegicus. As to the kind of experiment: Reduction in peripheral lymphocyte count in po dosed Lewis rat after 6 hrs. The format is functional.
A short description of data set [21]: Drug absorption in rat. Type of data set: ADME, organism-based. The following applies: in vivo, read-out: Fabs.
A short description of data set [22]: Clearance in rat. The format is ADME, organism-based. Particulars: in vivo.
A further data set deals with Caco-2. As to the kind of experiment: Permeability across human Caco2 cells at 0.5 to 50 uM. The format is ADME, cell-based. Particulars: caco-2, 50 µM. (Passage across Caco-2 layers is used to estimate intestinal permeability.)
Data set [23] is described as follows: Elimination half life in po dosed mouse. The format is ADME, organism-based. The following applies: in vivo, read-out: beta t1/2.
Another data set concerns Mus musculus. Description: Volume of distribution at steady state in po dosed mouse. The format is ADME, organism-based. Particulars: in vivo.

T2 sequence (Q99500 whole entry): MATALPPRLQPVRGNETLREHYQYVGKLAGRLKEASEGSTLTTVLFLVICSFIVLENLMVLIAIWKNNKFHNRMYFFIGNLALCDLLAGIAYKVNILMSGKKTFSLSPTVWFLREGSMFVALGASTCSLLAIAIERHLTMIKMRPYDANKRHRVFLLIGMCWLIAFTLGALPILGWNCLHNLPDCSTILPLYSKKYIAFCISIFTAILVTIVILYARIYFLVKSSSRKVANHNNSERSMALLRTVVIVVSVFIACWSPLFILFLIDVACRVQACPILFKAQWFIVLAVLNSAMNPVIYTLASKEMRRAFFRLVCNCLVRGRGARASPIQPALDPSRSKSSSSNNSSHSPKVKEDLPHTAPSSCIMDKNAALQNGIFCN
T1 sequence (P21453 whole entry): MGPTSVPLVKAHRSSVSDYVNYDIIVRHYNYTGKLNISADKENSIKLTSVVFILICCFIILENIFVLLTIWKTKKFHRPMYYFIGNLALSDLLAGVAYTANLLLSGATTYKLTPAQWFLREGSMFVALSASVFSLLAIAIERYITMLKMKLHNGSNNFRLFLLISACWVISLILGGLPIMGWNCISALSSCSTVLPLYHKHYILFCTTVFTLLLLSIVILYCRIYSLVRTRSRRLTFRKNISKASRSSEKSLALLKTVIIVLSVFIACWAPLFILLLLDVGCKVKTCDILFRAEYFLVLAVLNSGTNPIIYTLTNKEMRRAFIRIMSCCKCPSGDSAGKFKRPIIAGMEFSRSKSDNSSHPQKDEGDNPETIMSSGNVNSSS
Chain of hERG (KCNH2) (Q12809 whole entry): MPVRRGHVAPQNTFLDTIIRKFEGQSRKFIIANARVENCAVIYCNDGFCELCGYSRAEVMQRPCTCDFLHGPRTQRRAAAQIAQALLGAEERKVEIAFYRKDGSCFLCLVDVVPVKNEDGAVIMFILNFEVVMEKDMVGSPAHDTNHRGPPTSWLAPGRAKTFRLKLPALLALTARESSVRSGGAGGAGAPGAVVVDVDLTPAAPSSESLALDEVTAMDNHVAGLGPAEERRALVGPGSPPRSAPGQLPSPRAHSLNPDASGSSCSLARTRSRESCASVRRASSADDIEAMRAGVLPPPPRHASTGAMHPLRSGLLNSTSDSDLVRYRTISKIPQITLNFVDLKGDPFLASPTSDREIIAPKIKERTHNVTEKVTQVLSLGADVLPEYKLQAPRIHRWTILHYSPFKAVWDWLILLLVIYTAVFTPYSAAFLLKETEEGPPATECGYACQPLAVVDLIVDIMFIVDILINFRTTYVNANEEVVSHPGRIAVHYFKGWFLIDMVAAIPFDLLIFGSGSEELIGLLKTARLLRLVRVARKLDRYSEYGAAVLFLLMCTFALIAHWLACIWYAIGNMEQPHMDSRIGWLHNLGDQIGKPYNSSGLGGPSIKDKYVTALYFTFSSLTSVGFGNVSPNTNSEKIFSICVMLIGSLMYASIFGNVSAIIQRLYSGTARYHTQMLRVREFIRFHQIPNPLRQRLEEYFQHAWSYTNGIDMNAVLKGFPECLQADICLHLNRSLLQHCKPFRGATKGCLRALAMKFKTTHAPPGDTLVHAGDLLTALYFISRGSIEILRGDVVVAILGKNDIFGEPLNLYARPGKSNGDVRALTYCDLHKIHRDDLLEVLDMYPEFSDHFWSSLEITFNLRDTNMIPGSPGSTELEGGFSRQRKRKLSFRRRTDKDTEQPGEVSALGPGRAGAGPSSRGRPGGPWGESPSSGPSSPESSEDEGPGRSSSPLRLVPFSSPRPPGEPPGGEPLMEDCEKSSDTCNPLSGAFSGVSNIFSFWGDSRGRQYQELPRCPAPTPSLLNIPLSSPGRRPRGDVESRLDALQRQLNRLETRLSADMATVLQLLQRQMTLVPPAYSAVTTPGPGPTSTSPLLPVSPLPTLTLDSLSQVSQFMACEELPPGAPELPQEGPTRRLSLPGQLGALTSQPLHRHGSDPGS

In data set [1], `C/C(=N\OCc1ccc(-c2ccccc2)c(C(F)(F)F)c1)c1ccc(CNCCC(=O)O)cc1` returned an EC50 of 9 nM.
The same measure, in the same setting: under `C/C(=N\OCc1ccc(-c2ccc(F)cc2)c(C(F)(F)F)c1)c1ccc(CNCCC(=O)O)cc1` stands 11 nM.
On the same count and under the same terms, under `C/C(=N\OCc1ccc(-c2ccccc2C(F)(F)F)cc1)c1ccc(CNCCC(=O)O)cc1` stands 1700 nM; under `COc1ccccc1-c1ccc(CO/N=C(\C)c2ccc(CNCCC(=O)O)cc2)cc1`, 1400 nM.
Consider `C/C(=N\OCc1ccc(C2CCCCC2)c(C(F)(F)F)c1)c1ccc(CN2CC(C(=O)O)C2)c(C)c1`, for which the half-maximal effective concentration (EC50) in [1] was determined as 1.6 nM; in [2] it was 3200 nM. The Emax was 80% in data set [3] and 127% in [4].
`C/C(=N\OCc1ccc(-c2ccc(F)cc2)cc1)c1ccc(CNCCC(=O)O)cc1` had an EC50 in data set [1] of 210 nM.
`C/C(=N\OCc1ccc(-c2cccs2)c(C(F)(F)F)c1)c1ccc(CNCCC(=O)O)cc1`: the concentration giving a half-maximal response (EC50) was 18 nM in data set [1] and 5900 nM in data set [2].
Consider `CCc1cc(/C(C)=N/OCc2ccc(C3CCCCC3)c(C(F)(F)F)c2)ccc1CN1CC(C(=O)O)C1` [SIPONIMOD], for which the fraction unbound in data set [5], in [7], in data set [10] and in data set [15] was < 0.001 in each case. In addition, the results for the clearance in data set [6] and in data set [22] were 1.63 mL/min/kg and 6 mL/min/kg, respectively. For the same compound, the Activity in the data set with Rattus norvegicus [8] stood at 88%. For the same compound, the Vd amounted to 2.12 L/kg in data set [9] and 2.15 L/kg in data set [14]. Moreover, the EC50 in data set [2] stood at 5000 nM. Moreover, the bioavailability in data set [11] is 50%; in [17], 71%. Moreover, the outcome in the data set with Rattus norvegicus [12] was inactive. Also, the half-life is 6 h in data set [13] and 19 h in [18]. Besides, in the data set listed under Rattus norvegicus [16], the Drug excretion result is “Not Active”. The Emax in data set [3] came to 91%; in data set [4], 55%. The time of peak concentration (Tmax) in [19] worked out at 8 h. Further, the inhibition at 25 µM at hERG (KCNH2) was < 10%. The compound also yielded an ED50 in the data set with Rattus norvegicus [20] of 0.14 mg/kg. For the same compound, the Fa in data set [21] turned out to be 58%. Also, in the data set with Caco-2, the permeability result is listed as “permeable”.
Regarding `C/C(=N\OCc1ccc(C2CCCCC2)c(C(F)(F)F)c1)c1ccc(CNCCC(=O)O)s1`, the EC50 in data set [1] was determined as 2.2 nM; in data set [2], 4000 nM. Moreover, the Emax came to 104% in data set [3] and 79% in data set [4].
As for `C/C(=N\OCc1ccc(-c2ccco2)c(C(F)(F)F)c1)c1ccc(CNCCC(=O)O)cc1`, the 50% effective concentration (EC50) in data set [1] is 15 nM; in data set [2] it was 3000 nM.
As for `C/C(=N\OCc1ccc(-c2ccc(F)c(F)c2)c(C(F)(F)F)c1)c1ccc(CNCCC(=O)O)cc1`, a half-maximal response in data set [1] (EC50) required 16 nM.
For `C/C(=N\OCc1ccc(C2CCCC2)c(C(F)(F)F)c1)c1ccc(CNCCC(=O)O)cc1`, the figures for the EC50 in data set [1] and in data set [2] were 0.6 nM and 1600 nM, respectively.
On to `C/C(=N\OCc1ccc(-c2ccccc2)cc1)c1ccc(CCC(N)(CO)CO)cc1`, for which the half-life in data set [23] was > 30 h. This compound also came in with a Vdss with Mus musculus of 36.9 L/kg.
As for `C/C(=N\OCc1ccc(-c2ccccc2)cc1C(F)(F)F)c1ccc(CNCCC(=O)O)cc1`, it took 10000 nM to reach a half-maximal effect in data set [1] (EC50). In addition, in data set [3], the Emax entry is “inactive”.
For the compound `C/C(=N\OCc1ccc(C2CCCCC2)c(C(F)(F)F)c1)c1ccc(CNCCC(=O)O)c(C2CC2)c1`, the EC50 in data set [1] turned out to be 0.4 nM; in [2] it was 1300 nM. The maximal response (Emax) amounted to 98% in data set [3] and 63% in data set [4].
In data set [1], `C/C(=N\OCc1ccc(-c2ccccc2)c(F)c1)c1ccc(CNCCC(=O)O)cc1` had an EC50 of 61 nM.
On the same count and under the same terms, in the case of `C/C(=N\OCc1ccc(-c2ccc(C)cc2)c(C(F)(F)F)c1)c1ccc(CNCCC(=O)O)cc1` it was 94 nM.
As to `C/C(=N\OCc1ccc(C2CCCCC2)c(C(F)(F)F)c1)c1ccc(CNCCC(=O)O)c(Br)c1`, the values for the EC50 in data set [1] and in data set [2] were 0.4 nM and 1100 nM, respectively. The Emax in [3] stood at 85%; in data set [4], 65%.
For `C/C(=N\OCc1ccc(-c2ccccc2)cc1F)c1ccc(CNCCC(=O)O)cc1`, the EC50 in data set [1] amounted to 120 nM.
As for `C/C(=N\OCc1ccc(C2CCCCC2)c(C(F)(F)F)c1)c1ccc(CNCCC(=O)O)nc1`, the EC50 in data set [1] was 2.6 nM; in data set [2], 4300 nM. Further, the results for the Emax in data set [3] and in data set [4] were 86% and 44%, respectively.
The like results for `C/C(=N\OCc1ccc(C2CCCCC2)c(C(F)(F)F)c1)c1ccc(CNCCC(=O)O)c(Cl)c1` were, in that order, 0.6 nM, 1900 nM, 106% and 50%.
The compound `C/C(=N\OCc1ccc(-c2ccc(C(F)(F)F)cc2)cc1)c1ccc(CNCCC(=O)O)cc1` came in with an EC50 in data set [1] of 10000 nM.
On the same count and under the same terms, in the case of `C/C(=N\OCc1ccc(-c2ccccc2)cc1)c1ccc(CNCCC(=O)O)cc1` it was 300 nM.
Consider `C/C(=N\OCc1ccc(C2CCCCC2)c(C(F)(F)F)c1)c1ccc(CNCCC(=O)O)c(F)c1`, for which the results for the concentration for a half-maximal effect (EC50) in data set [1] and in data set [2] were 0.3 nM and 2200 nM, respectively. In addition, the Emax in data set [3] amounted to 105%; in data set [4] it was 61%.
On to `CCc1cc(/C(C)=N/OCc2ccc(C3CCCCC3)c(C(F)(F)F)c2)ccc1CNCCC(=O)O`, for which the 50% effective concentration (EC50) was 0.7 nM in data set [1] and 7200 nM in data set [2]. Further, the maximal response (Emax) was determined as 92% in data set [3] and 43% in [4].
The like results for `C/C(=N\OCc1ccc(C2CCCCC2)c(C(F)(F)F)c1)c1ccc(CNCCC(=O)O)cn1` were, in that order, 1.4 nM, 2600 nM, 92% and 53%.
Compound `COc1ccc(-c2ccc(CO/N=C(\C)c3ccc(CNCCC(=O)O)cc3)cc2)cc1` returned an EC50 in data set [1] of 1500 nM.
In the case of `C/C(=N\OCc1ccc(C2CCCCC2)c(C(F)(F)F)c1)c1ccc(CNCCC(=O)O)c(C)c1`, the EC50 in data set [1] stood at 2 nM; in [2], 5900 nM. Moreover, the Emax in data set [3] is 94%; in [4], 159%.
The like results for `C/C(=N\OCc1ccc(C2CCCCC2)c(C(F)(F)F)c1)c1ccc(CNCCC(=O)O)o1` were, in that order, 17 nM, 2500 nM, 100% and 62%.
In [1], `C/C(=N\OCc1ccc(-c2ccc(C)cc2)cc1)c1ccc(CNCCC(=O)O)cc1` gave an EC50 of 640 nM.
For `C/C(=N\OCc1ccc(C2CCCCC2)c(C(F)(F)F)c1)c1ccc(CNCCC(=O)O)cc1`, the results for the 50% effective concentration (EC50) in data set [1] and in data set [2] were 0.3 nM and 1500 nM, respectively.
`C/C(=N\OCc1ccc(-c2ccccc2F)c(C(F)(F)F)c1)c1ccc(CNCCC(=O)O)cc1` had an EC50 in data set [1] of 8 nM.
